Experimental data: patent publication EP0442757A2, “Therapeutic nucleosides” (THE WELLCOME FOUNDATION LIMITED, priority 1990, dated 1991)

Legend:
Assay type in all cases: cell-based
[1] = test system: HIV-1; assay: PBL assay (P24 capsid antigen ELISA in human peripheral blood lymphocytes); details: human PBL's stimulated with IL2 and PHA, P24 ELISA after 4 days incubation at 37°C, several values per cell
Procedure: HIV assays were carried out in human peripheral blood lymphocytes (PBL's) prepared by fractionation of fresh human […] on Ficoll gradients as described by Hartmann H. et al. Aids Research and Human Retroviruses, 1988, 4 457-466. The isolated PBL's were stimulated with growth factors IL2 and PHA for 3 days before infection with HIV. Growth of virus was monitored, after 4 days incubation at 37°C, by quantitative ELISA assays of the capsid antigen, P24. A range of concentrations of compound of known molarity was incorporated into the medium. Yield of P24 at each concentration are expressed as a percentage of the control and a dose response curve is drawn. From this curve the 50% inhibitory concentration (IC50) is estimated.

[2] = test system: HIV-1; assay: HeLa-CD4+ cell assay (plaque reduction in HT4-6C cell monolayers); details: Human immunodeficiency virus 1, plaque reduction after 2-3 days, method calls the value ID50
Procedure: Susceptibility of HIV to inhibitors was determined by infection of HT4-6C cell monolayers as described by Larder, B.A., Chesebro, B. & Richman, D.D. Antimicrob. Agents Chemother. 1990 34, 436-441. Briefly cells were seeded in 24-well multiwells at 5x10⁴ cells per well and incubated overnight at 37°C in growth medium (DMEM10). Monolayers were infected with 100-200pfu of cell-free virus in 0.2ml of DMEM containing 5% fetal bovine serum plus antibiotics (DMEM5) and incubated for 1 hour at 37°C to allow virus adsorption. Following this time, 0.8ml of DMEM5 (with or without inhibitor) was added to each well and cultures were incubated at 37°C for 2-3 days. Monolayers were fixed with 10% formaldehyde solution in PBS and stained with 0.25% crystal violet in order to visualize virus plaques. Individual foci of multinucleated gian cells (plaques) were apparent using this staining procedure. ID₅₀ values were derived from plots of percent plaque reduction versus inhibitor concentration.

[3] = test system: HIV-1; assay: Antiviral MT4 assay (reversal of HIV cytopathic effect, MTT uptake); details: MTT uptake at fifth day post infection, several values per cell, read-out: IC50 vs HIV-1 (μM) MT-4 (converted)
Procedure: Antiviral activity against the Human Immunodeficiency Virus (HIV) was determined according to the method of Pauwels et al, J.Virol.Methods, 1988 20 309-321 by measuring the ability of the compound to reverse the cytopathic effect of HIV infection. This was determined by a quantitative assessment of cell growth monitored at the fifth day post infection by a tetrazolium dye (MTT) uptake test. Subconfluent (20-40,000 cells/well) human T lymphocyte cell line MT4 cells infected with HIV were grown in 96-well microtiter dishes and exposed to different dilutions of drug. After 5 days, the dye intake test was performed on drug treated cultures and on HIV infected and mock infected MT4 cells. Under the conditions of the test, HIV infection caused extensive cytopathic effect and prevented cell growth by >80%. The antiviral effect of a drug is reported as an IC-50, i.e. as the inhibitory concentration that would protect 50% of the cells from cell killing, measured as 50% of that cell growth determined for uninfected MT4 cell controls.

[4] = Cell toxicity, cell growth inhibition assay (MTT uptake); details: CCID-50: 50% inhibition of cell viability at 5 days; uninfected MT4 cells or vero cells (not stated which); read-out: TOX
Procedure: Cell toxicity was assessed in a cell growth inhibition assay on uninfected MT4 cells or on vero cells in a 96-well microtiter dish. Identical cell numbers of uninfected cells were exposed to different dilutions of drug and cell viability determined daily on replicate cultures using uptake of MTT. The concentration required for a 50% inhibition of cell viability at 5 days is termed CCID-50.

[5] = Human immunodeficiency virus 1, Lymphocyte, 96 h

COCc1cn([C@H]2C[C@H](F)[C@@H](CO)O2)c(=O)[nH]c1=O [2′,3′-Dideoxy-3′-fluoro-5-methoxymethyluridine]
IC50 [1, 5]: 1.89 µM
IC50 [2]: 11.9 µM
IC50 ([3]; Human immunodeficiency virus 1, MT4, MT4 cells infected with HIV): 8.4 µM
IC50 ([3]; MT4 cells infected with HIV): 6.4 µM
CC50 at 120 h [4]: > 500 µM

CSCc1cn([C@H]2C[C@H](F)[C@@H](CO)O2)c(=O)[nH]c1=O [2′,3′-Dideoxy-3′-fluoro-5-methylthiomethyluridine]
IC50 [2]: 4.2 µM
CC50 at 120 h [4]: > 200 µM

CCOCc1cn([C@H]2C[C@H](F)[C@@H](CO)O2)c(=O)[nH]c1=O [2′,3′-Dideoxy-5-ethoxymethyl-3′-fluorouridine]
IC50 [1, 5]: 1.52 µM
IC50 [1]: 1.63 µM
IC50 [2]: 6.3 µM
CC50 at 120 h [4]: > 200 µM
